Patent EP0306160A2, “Molluscicides” (BRITISH TECHNOLOGY GROUP LIMITED, priority 1987, dated 1989)
Read-outs that look alike come from different tables or passages of the source.

How the values were obtained:
Type in all cases: in vivo
Deroceras reticulatum = test: Bait bioassay with increasing concentrations in standard bait (Examples 19-35); conditions: for Kill: 4 days
Description: Test compounds were incorporated into a standard wheat-flour-based edible carrier containing 10% paraffin wax binder and 2.5% sucrose phagostimulant, in increasing concentrations 0, 1, 4, 7, 10, 13 and 16% a.i.
Groups of ten field-collected D. reticulatum in the weight range 400-600 mg were confined with 0.5 g DM test bait at each concentration for a period of 4 days under a regime of 12 h dark @ 5°C and 12 light @ 15°C. Weight of bait eaten and number of slugs killed were recorded. Each group of compounds was tested against a concurrently run Al(ac.ac)₃ standard bait.
In Examples 23 to 35, where six groups of ten slugs are offered bait containing 1,4,7,10,13 or 16% a.i., have been reduced to two values, (i), the total amount of a.i. ingested (mg) which gives an indication of the palatability of the compound, and (ii), the total number of slugs killed (x/60) which, with (i), gives an indication of its relative toxicity.

[1] = system: grey field slugs, Deroceras reticulatum; test: Stomach poison action, voluntary feeding (wheatmeal bait)
Description: (§1) All laboratory tests were made with field-collected grey field slugs, Deroceras reticulatum (Pulmonata, Limacidae) and also with Arion hortensis in the weight range 0.4-0.6g. They were held in polythene bowls on wet filter paper in a controlled environment cabinet cycling 12 hours light at 15°C and 12 hours dark at 5°C. Voluntary feeding tests were made under these conditions but all other laboratory bioassays were carried out at 10°C constant temperature with an overnight pre-treatment period also at 10°C.
Test chemicals were offered to slugs at a range of concentrations in a wheat-meal based formulation, groups of ten slugs being confined in 15 cm crystallising dishes containing only wet filter paper and a solid watch glass filled with 3 g (dry weight) of test bait for four 24-hour cycles […]

[2] = system: grey field slugs, Deroceras reticulatum; test: Contact with treated soil surface; conditions: mean of all tests
Description: as §1
Groups of ten slugs were held in plastic seed trays, 20 x 34 cm x 5 cm deep, filled to a depth of 1 cm with standard soil, a sandy clay loam from Rothamsted Farm, with a pH in water of 5.2, previously oven-dried, sieved (2 mm mesh), and rewetted to field capacity in the trays. Test chemicals were mixed with 5g dry soil, ground together and sprinkled on to the wet soil surface. Slugs were confined to the treated surface by a 16 v pulsed DC electric fence attached to the tray sides. Trays were covered to maintain a high Relative Humidity and food was provided. Dead slugs were removed daily and the final mortality count made after 10 days.

[3] = system: grey field slugs, Deroceras reticulatum; test: Contact with coated glass plate; conditions: for LC₅₀ On glass (50 min)., Mean: mean of all tests
Description: as §1
Groups of ten slugs were placed foot-down on sheets of glass, 10 cm x 10 cm, previously coated with an aqueous solution of suspension of test chemical and air dried to leave a deposit of known weight per unit area. Slugs were confined to a treated area for a period of 50 minutes at 10°C on plates with increasing surface loadings, then removed and held in wet filter paper-floored petri dishes with food. The number of dead slugs after seven days was recorded and the values used to calculate median lethal surface concentrations ('LC₅₀') for each compound by probit analysis.

slugs [4] = test: Laboratory test, standard baits containing 1% metal ion, no alternative food (Example 17); conditions: 3 replicates of 10 slugs; standard bait containing 1% metal ion
Description: as §1
Laboratory tests where 3 replicates of 10 slugs were confined with standard baits containing 1% metal ion in different compounds, and no alternative food supplied, gave the following results: Aluminium sulphate (Al₂(SO₄)₃): 0/10, 0/10, 0/10 killed Aluminium acetylacetonate: 10/10, 10/10, 10/10 killed (Ex 17)

slugs [5] = test: Field comparison of baits (grass/clover), Table VII; conditions: first 4 days of trial; bait 10 % ai, 2.5 % sucrose (PP pellets 6 % ai, Draza pellets 4 % ai)
Source text: In Table VII there is presented a comparison of the efficacy of present iron and aluminium chelates with metaldehyde and methiocarb under field conditions (grass/clover).

Compound: CC(=O)C=C(C)[O][Al]([O]C(C)=CC(C)=O)[O]C(C)=CC(C)=O [Example 19, Tris (2,4-pentanedionato) Al III]
- Kill (Deroceras reticulatum; 1 % a.i. in standard bait): 0 x/10
- Kill (Deroceras reticulatum; 4 % a.i. in standard bait): 0 x/10
- Kill (Deroceras reticulatum; 7 % a.i. in standard bait): 6 x/10
- Kill (Deroceras reticulatum; 10 % a.i. in standard bait): 7 x/10
- Kill (Deroceras reticulatum; 13 % a.i. in standard bait): 8 x/10
- Kill (Deroceras reticulatum; 16 % a.i. in standard bait): 8 x/10
- mortality at 0.01 % ([1]; Deroceras reticulatum, po, 168 h, 0.01 % Al in wheatmeal bait, read-out: Mortality after 7 days): 10%
- mortality at 0.03 % ([1]; Deroceras reticulatum, po, 168 h, 0.03 % Al in wheatmeal bait, read-out: Mortality after 7 days): 10%
- mortality at 0.1 % ([1]; Deroceras reticulatum, po, 168 h, 0.1 % Al in wheatmeal bait, read-out: Mortality after 7 days): 20%
- mortality at 0.3 % ([1]; Deroceras reticulatum, po, 168 h, 0.3 % Al in wheatmeal bait, read-out: Mortality after 7 days): 40%
- mortality at 1 % ([1]; Deroceras reticulatum, po, 168 h, 1.0 % Al in wheatmeal bait, read-out: Mortality after 7 days): 100%
- mortality at 3 % ([1]; Deroceras reticulatum, po, 168 h, 3.0 % Al in wheatmeal bait, read-out: Mortality after 7 days): 100%
- mortality at 0.1 % ([1]; Deroceras reticulatum, po, 216 h, 0.1 % Metal in wheatmeal bait (Table III), read-out: Mortality after 9 days): 40%
- mortality at 0.5 % ([1]; Deroceras reticulatum, po, 216 h, 0.5 % Metal in wheatmeal bait (Table III), read-out: Mortality after 9 days): 80%
- mortality at 1 % ([1]; Deroceras reticulatum, po, 216 h, 1.0 % Metal in wheatmeal bait (Table III), read-out: Mortality after 9 days): 80%
- mortality at 5 % ([1]; Deroceras reticulatum, po, 216 h, 5.0 % Metal in wheatmeal bait (Table III), read-out: Mortality after 9 days): 80%
- mortality at 10 % ([1]; Deroceras reticulatum, po, 216 h, 10.0 % Metal in wheatmeal bait (Table III), read-out: Mortality after 9 days): 80%
- mortality at 1 % ([1]; Deroceras reticulatum, po, at 1 per cent Aluminium content, non-choice test (Table II), read-out: mortality): 100%
- LC₅₀ On soil (10 days), Mean [2]: 34.1 µg metal/cm²
- LC₅₀ On glass (50 min). ([3]; individual tests, 50 min contact at 10°C, dead after seven days, bracketed values estimated, listed as Al^III acetylacetonate): (10-100)(Example 1) µg metal cm²
- LC₅₀ On glass (50 min)., Mean [3]: (< 100) µg metal cm²
- killed (slugs [4]): 10/10

Compound: CCC(=O)C=C(C)[O][Al]([O]C(C)=CC(=O)CC)[O]C(C)=CC(=O)CC [Example 20, Tris (2,4-hexanedionato) Al III]
- Kill (Deroceras reticulatum; 1 % a.i. in standard bait): 1 x/10
- Kill (Deroceras reticulatum; 4 % a.i. in standard bait): 0 x/10
- Kill (Deroceras reticulatum; 7 % a.i. in standard bait): 4 x/10
- Kill (Deroceras reticulatum; 10 % a.i. in standard bait): 1 x/10
- Kill (Deroceras reticulatum; 13 % a.i. in standard bait): 5 x/10
- Kill (Deroceras reticulatum; 16 % a.i. in standard bait): 5 x/10

Compound: CCC(=O)C=C(CC)[O][Al]([O]C(=CC(=O)CC)CC)[O]C(=CC(=O)CC)CC [Example 21, Tris (3,5-heptanedionato) Al III]
- Kill (Deroceras reticulatum; 1 % a.i. in standard bait): 1 x/10
- Kill (Deroceras reticulatum; 4 % a.i. in standard bait): 3 x/10
- Kill (Deroceras reticulatum; 7 % a.i. in standard bait): 0 x/10
- Kill (Deroceras reticulatum; 10 % a.i. in standard bait): 1 x/10
- Kill (Deroceras reticulatum; 13 % a.i. in standard bait): 1 x/10
- Kill (Deroceras reticulatum; 16 % a.i. in standard bait): 2 x/10

Compound: CC1OC(C)OC(C)OC(C)O1 (centres unmarked) [Metaldehyde]
- Total Slugs 'Dead' or 'Immobilised' (Cumulative) Total D+I (slugs [5]): 461

Compound: CNC(=O)Oc1cc(C)c(SC)c(C)c1 [Methiocarb]
- Total Slugs 'Dead' or 'Immobilised' (Cumulative) Total D+I (slugs [5]): 557

Compound: Aluminium sulphate [reference compound]
- Mortality after 7 days ([1]; 0.01 % Al in wheatmeal bait): 1 x/10
- Mortality after 7 days ([1]; 0.03 % Al in wheatmeal bait): 2 x/10
- Mortality after 7 days ([1]; 0.1 % Al in wheatmeal bait): 3 x/10
- Mortality after 7 days ([1]; 0.3 % Al in wheatmeal bait): 3 x/10
- Mortality after 7 days ([1]; 1.0 % Al in wheatmeal bait): 5 x/10
- Mortality after 7 days ([1]; 3.0 % Al in wheatmeal bait): 2 x/10
- LC₅₀ On soil (10 days), Mean [2]: 207.4 µg metal/cm²
- LC₅₀ values on glass [3]: around 20 µg metal cm⁻²
- LC₅₀ On glass (50 min)., Mean [3]: 20.9 µg metal cm⁻²
- killed (slugs [4]): 0/10

Compound: Tris (1-dimethoxy-2, 4-pentanedionato) Al III [Example 29]
- Slugs dead (Deroceras reticulatum; total over six groups of ten slugs offered bait containing 1,4,7,10,13 or 16% a.i.): 14 x/10
